Results: patent US6706491B1, “Reagents and methods for identifying and modulating expression of genes regulated by p21” (The Board of Trustees of the University of Illinois, priority 1999, dated 2004)

Tests used:
[1] = tested on: p21-9 cells; experiment: 3H-thymidine labeling index (autoradiography) in p21-9 cells; format: cell-based, human
Protocol: (§1) Cell growth in the presence of IPTG was assayed in three ways: measuring ^3H-thymidine incorporation (termed the “labeling index”); observing the number of mitotic cells in the culture by microscopy (termed the “mitotic index”) and determining the distribution of the culture cells in different portions of the cell cycle (termed the “cell cycle distribution”).
^3H-thymidine incorporation assays were performed substantially as described by Dimri et al. (1995, Proc. Natl. Acad. Sci. USA 92: 9363-9367). Cells were cultured in the presence of ^3H-thymidine for 3h, and then analyzed by autoradiography. DNA replication as determined by autoradiography ceased entirely by 9 hours after addition of IPTG to the culture media (FIG. 3A).

[2] = tested on: C8 cells; experiment: Apoptosis / cell survival assay in low serum; format: cell-based, mouse; settings: IPTG added by itself
Protocol: (§2) In these experiments, conditioned media were prepared by plating 10^6 p12-9 cells per 15 cm plate in the presence of DMEM/10% FCS. The next day, IPTG was added to a final concentration of 50 μM, and this media was replaced three days later with DMEM supplemented with 0.5% FCS and 50 μM IPTG. Two days later (days 3-5 of IPTG treatment), this conditioned media was collected and stored at 4° C. up to 15 days before use. Control media were prepared by adding IPTG-free DMEM/0.5% FCS to untreated cells grown to the same density as IPTG-treated cells and collecting the media two days thereafter.
The effect of this conditioned media on apoptosis was also determined. These experiments used a mouse embryo fibroblast line C8, immortalized by E1A. […] Apoptosis was analyzed by plating 3×10^5 C8 cells per 6-cm plate, and replacing the media on the following day with fresh media supplemented with 0.4% serum or with conditioned media (no fresh serum added). DNA content analysis and DAPI staining were carried out after 24 hrs and 48 hrs, and relative cell numbers were measured by methylene blue staining (Perry et al., 1992, Mutai. Res. 276: 189-197) after 48 hrs in low-serum media.

[3] = tested on: HS 15.T cells; experiment: Mitogenic activity assay (3H-thymidine incorporation); format: cell-based, human; settings: media supplemented with 1% or 2% FCS; 60 hr then 24 hrs label
Protocol: as §2
The slow-growing human fibrosarcoma cell line HS 15.T was used to detect mitogenic activity in these conditioned media. For mitogenic activity assays, both types of conditioned media, as well as fresh media and 1:1 mixtures of conditioned media and fresh media were used to test mitogenic activity. In these experiments, the conditioned media were supplemented with 1% or 2% FCS. Briefly, HS 15.T cells were plated in 12-well plates at 15,000 cells per well. Two days later, these cells were cultured in different types of media. […] Cells were then collected and their ^3H-thymidine incorporation determined as described by Mosca et al. (1992, Mol. Cell. Biol. 12: 4375-4383).

[4] = tested on: p21-9 cells; experiment: Cell cycle distribution (FACS, propidium iodide) in p21-9 cells; format: cell-based, human; settings: after 24 hrs of 50 μM IPTG
Protocol: as §1
Cell cycle distribution was determined using FACS analysis of DNA content after staining with propidium iodide as described by Jordan et al. (1996, Cancer Res. 56: 816-825) using Becton Dickinson FACSort. By this time, 42-43% of IPTG-treated cells were arrested in G1 and G2, respectively, and about 15% of the cells were arrested with S-phase DNA content.

[5] = tested on: p21-9 cells; experiment: Morphology of mitotic figures after release from IPTG; format: cell-based, human; settings: 1-2 days after release
Protocol: (§3) The mitogenic index was determined by observing cells microscopically and calculating the number of cells in mitosis after staining with 5 μg/mL 4,6-diamino-2-phenylindole (DAPI), and images were collected using a Leica DMIRB fluorescence microscope and Vaytek (Fairfield, Iowa) imaging system. Microscopically-detectable mitotic cells disappeared from these cultures in the presence of IPTG in two stages: the first occurring between 0-4 hours after IPTG addition (wherein the mitotic index dropped from about 15% in untreated cells to about 5% in IPTG-treated cells) and then again between about 10-14 hours after IPTG addition (wherein the mitotic index dropped to zero at about 13 hours after IPTG addition (FIG. 3B).
A major difference between cells that were inhibited by IPTG for one day compared with those inhibited for S days emerged, however, when the morphology of attached mitotic cells arising 1-2 days after release from IPTG was examined. […] The percentage of normal mitoses in 1-day and 5-day IPTG treated cells were 45% and 2%, respectively, which is close to the corresponding values for clonogenic recovery (38% and 1%).

[6] = tested on: p21-9 cells; experiment: Colony assay for recovery from IPTG treatment; format: cell-based, human; settings: for decreased clonogenicity: 3-5 days treatment; for reduction of clonogenicity: continuous exposure
Protocol: (§4) Colony assays for recovery from IPTG treatment were performed by plating about 2,000 p21-9 cells per 10 cm culture dish in DMEM/10% FCS and the presence or absence of IPTG. Cells were allowed to form colonies for 10 days before their clonogenic capacity was determined. p12-9 cells were treated with three concentrations of IPTG: 0.5 μM, 5 μM and 50 μM. […] In contrast, continuous exposure of the cells to 5 μM or 50 μM IPTG reduced the clonogenicity of p2l-9 cells by 80% and 100%, respectively.

[7] = tested on: p21-9 cells; experiment: Mitotic index (microscopy after DAPI staining) in p21-9 cells; format: cell-based, human
Protocol: as §1, §3

[8] = tested on: p21; experiment: p21 induction in p21-9 cells by IPTG (p21 ELISA); format: cell-based, human
Protocol: p21 expression from the LNp21CO3 vector in p21-9 cells was induced by culturing the cells in DMEM medium containing 10% fetal calf serum (Hyclone, Logan, Utah) and IPTG. […] Upon removing the cells from IPTG-containing media, p21 expression fell about as rapidly as it had risen, returning to pre-induction levels at about 24 hours after IPTG was removed, (FIG. 2B).
as §4
Expression of 69 of these genes was individually tested by RT-PCR or northern hybridization with probes derived from inserts of the cDNA clones present in the microarray; these cDNAs were obtained from Genome Systems, Inc. In addition, enzyme-linked immunosorbent assay (ELISA) measurement of p21 protein was carried out using WAF1 ELISA kit (obtained from Oncogene Science, Uniondale, N.Y.) as described (Chang et al., 1999, Oncogene 18: 4808-4818). The following primary antibodies were used for immunoblotting: mouse monoclonal antibodies against Cdc2 (Santa Cruz), cyclin A (NeoMarkers), Plk 1 (Zymed) and Rb (PharMingen); rabbit polyclonal antibodies against MAD2 (BadCo), p107 (Santa Cruz), CTGF (Fisp-12; a gift of Dr. L. Lau), Prc 1 (a gift of Drs. W. Jiang and T. Hunter), and topoisomerase IIα (Ab0284; a gift of Dr. W. T. Beck), and sheep polyclonal antibody against. SOD2 (Calbiochem). Horse radish peroxidase (HRP)-conjugated secondary antibodies used were goat anti-mouse and goat anti-rabbit. IgG (Santa:Cruz) and rabbit anti-sheep IgG (KPL). Protein concentrations in all samples were equalized after measurement with BioRad-protein assay kit. Immunoblotting was carried out by standard procedures, and the signal was detected by chemiluminescence using LumiGlo (KPL).

## CC(C)S[C@@H]1O[C@H](CO)[C@H](O)[C@H](O)[C@H]1O [IPTG, isopropyl-β-thiogalactoside]
[1]; 50 μM IPTG
  time to complete cessation of DNA replication after addition of IPTG: ≤ 9 h
[1]; after removal of 50 μM IPTG
  time to resumption of DNA replication after release from IPTG: about 20 hours
[2]
  effect on apoptosis in C8 cells: no effect on apoptosis
[3]
  effect on 3H-thymidine incorporation by HS 15.T cells: no effect
[4]
  cells arrested in G1 and G2, respectively: 42-43%
  cells arrested with S-phase DNA content: about 15%
[5]; 1-day IPTG treatment
  percentage of normal mitoses: 45%
[5]; 5-day IPTG treatment
  percentage of normal mitoses: 2%
[6]; 0.5 μM IPTG
  colony formation: did not inhibit colony formation
[6]; 5 μM IPTG removed after 12 or 14 hours
  colony formation: substantially undiminished colony formation
[6]; 5 μM IPTG
  decreased clonogenicity: 55-58%
  reduction of clonogenicity: 80%
[6]; 50 μM IPTG removed after 12 or 14 hours
  decrease in clonogenicity: 58-63%
[6]; 50 μM IPTG
  decreased clonogenicity: 95-99%
  reduction of clonogenicity: 100%
[7]; 0-4 hours after addition of 50 μM IPTG, about 15% in untreated cells
  mitotic index: about 5%
[7]; 50 μM IPTG
  time at which mitotic index dropped to zero after IPTG addition: about 13 hours
[7]; after removal of 50 μM IPTG
  time to resumption of mitosis after IPTG release: about 30 hours
[8]; 0.5 μM IPTG
  increase in p21 gene expression: no measurable increase over basal p21 levels
[8]; 5 μM IPTG
  increase in p21 gene expression: half-maximal
[8]; 50 μM IPTG
  increase in p21 gene expression: maximal increase
  time of peak p21 expression post-induction: about 24 hours
[8]; IPTG-treated p21-9 cells, 50 μM IPTG
  increase in p21 levels: 15-20 fold
